The values that follow come from patent publication US20130030007A1, “Obesity Small Molecules” (AKRON MOLECULES GMBH, priority 2010, published 2013).

For series [1], the system named is C57BL6/J DIO mice. As to the kind of experiment: Body weight of diet-induced obese mice under daily compound administration. It is filed as in vivo, mouse. How it is done:
FIG. 9. Loss of weight in Vandetanib administered mice. C57BL6/J DIO mice were administered 40/mg/kg/day by oral gavage. The mice were weighed daily and the values were expressed as a percentage of the starting weight (day 1). […] Error bars represent standard error of the mean.
FIG. 13. Loss of weight in dasatininb administered mice. C57BL6/J DIO mice were administered 5/mg/kg/day for 27 days. The mice were weighed daily and the values were expressed as a percentage of the starting weight (day 1). […] Error bars represent standard error of the mean.
General preferred layout: The mice were divided into cages of 2-4 mice per cage and allowed to acclimatise to the new housing conditions for at least 2 weeks. The mice were weighed every week to monitor their weight and ensure that the mice are either gaining weight or stabilized prior to initiation of the experiment. Mice were randomly assigned to weight-matched groups for compound administration. Compound dosage and routes of administration were determined based on published literature and pharmacokinetic studies. […]
The dose of Vandetanib chosen for this study was 40 mg/kg/d. This has been determined to be an effective dose for the inhibition of the target VEGFR in various mouse cancer models. […] The mice were weighed on a daily basis during the experiment and monitored for overt signs of toxicity or stress. […]

Series [2] has as its system C57BL6/J DIO mice.
For series [3], the system named is hedgehog pathway. It is filed as cell-based.
The conditions of series [4]: administered orally; cited from earlier work.
The conditions of series [5]: human, in vivo, po; cited from earlier work.
For series [6] the following is noted: cited from earlier work.
The subject of series [7] is human ortholog of Drosophila obesity gene. As to the kind of experiment: Table 1: type of interaction of small molecule with therapeutic target gene. More on the design: key: O: Obesity - obesity pathway interaction; B: validated binding partner.
Series [8] relates to human Adenoid Cycstic Carcinoma. Particulars: 50 mg/kg/d oral gavage for 4 weeks; cited from earlier work.
For series [9], the system named is renal cell carcinoma. Particulars: 50 mg/kg for 21 days; cited from earlier work.
Series [10] concerns tumour growth. The following applies: up to 100 mg/kg in mice for 35 days; cited from earlier work.
For series [11] the following is noted: cited from earlier work. The source holds these as a separate data set.
Series [12] concerns human ortholog of Drosophila obesity gene. Details: key: O: Obesity - obesity pathway interaction; B: validated binding partner. Particulars: cited from earlier work.
The mark [13] stands for this setting: interaction of the small molecule with the human ortholog(s) / Drosophila gene(s) listed in the same table line.

Read-outs that look alike come from different tables or passages of the source. No end group written: not given here.

`Cc1nc(Nc2ncc(C(=O)Nc3c(C)cccc3Cl)s2)cc(N2CCN(CCO)CC2)n1` [Dasatinib]: the “average loss of starting weight” value in series [1] (5 mg/kg/day intraperitoneally, by day 28) came out at 20%. Besides, the “tolerability / adverse side effects” value in series [2] (mouse, in vivo, ip, 5 mg/kg/day) is “well tolerated during the course of the study and no adverse side effects were observed”.

With `CNC1CCC(N(Cc2cccc(-c3ccncc3)c2)C(=O)c2sc3ccccc3c2Cl)CC1` (stereo not shown) [SAG], the “hedgehog pathway activation (target genes Gli1 and Ptch1)” value in series [3] is “activation”.

As for `CNC(=O)c1cc(Oc2ccc(NC(=O)Nc3ccc(Cl)c(C(F)(F)F)c3)cc2)ccn1` [Sorafenib], the half life in series [4] is 25 to 48 h. Besides, in series [5], the “maximum tolerated dose in humans” value is reported as 400 mg.

For `C=CCNC1=C2C[C@@H](C)C[C@H](OC)[C@H](O)[C@@H](C)/C=C(\C)[C@H](OC(N)=O)[C@@H](OC)/C=C\C=C(/C)C(=O)NC(=CC1=O)C2=O` [Tanespimycin, 17-allylamino-demethoxygeldamycin], the water solubility result in series [6] is “water insoluble”.

As for `COc1ccc(-c2cc(=O)c3c(OC)c(OC)c(OC)c(OC)c3o2)cc1` [Tangeretin], the “Type: Type of interaction” value in series [7] is “B”.

Turning to `COc1cc2c(Nc3ccc(Br)cc3F)ncnc2cc1OCC1CCN(C)CC1` [Vandetanib], the “reduction of body weight” value in [1] (40 mg/kg/d oral gavage, stabilized over the course of the experiment) is approximately 10%. Besides, in series [2] (DIO mice, 40 mg/kg/d oral gavage, course of the study), the “tolerability / adverse side effects” value was “well tolerated during the course of the study and no adverse side effects were observed”. For the same compound, the tolerability result in series [8] was “well tolerated by the mice and no adverse side effects or loss in body weight was observed”; in [9] it was “well tolerated with no drug related changes in weight or behaviour observed”. Besides, in [10], the “effect on clinical condition” value is “no obvious effect on clinical condition”. In addition, in [5], the “maximum tolerated dose in humans” value is 300 mg.

For the compound `O=C(O[C@@H]1Cc2c(O)cc(O)cc2O[C@@H]1c1ccc(O)c(O)c1)c1cc(O)c(O)c(O)c1` [epicatechin gallate], the “Type: Type of interaction” value in series [7] is listed as “B”.

Turning to `CCC(=O)O[C@]1(C(=O)SCF)[C@H](C)C[C@H]2[C@@H]3C[C@H](F)C4=CC(=O)C=C[C@]4(C)[C@@]3(F)[C@@H](O)C[C@@]21C` [fluticasone propionate], the acute toxic effects result in [11] (human, in vivo, po) is given as “no acute toxic effects reported”. Besides, the tolerability entry in series [11] (intranasal 2 mg twice daily for 7 days, healthy human volunteers) is reported as “well tolerated”; in series [11] (repeat oral doses up to 80 mg daily for 10 days in volunteers, up to 10 mg daily for 14 days in patients) it was “well tolerated”.

As for `O=C1C[C@@H](c2ccc(O[C@@H]3O[C@H](CO)[C@@H](O)[C@H](O)[C@H]3O)cc2)Oc2cc(O)ccc21` [liquiritin], the “Type: Type of interaction” value in series [7] is reported as “O”.

For the compound `CC(=O)O[C@@]12C[C@@H](C)[C@@]3(O)[C@@H](C=C(CO)C[C@]4(O)C(=O)C(C)=C[C@@H]34)[C@@H]1C2(C)C` [prostratin], the “Type: Type of interaction” value in series [12] (setting [13]) is recorded as “O”.

In the case of `COCCCN1CCC(NC(=O)c2cc(Cl)c(N)c3c2OCC3)CC1` [prucalopride], the “Type: Type of interaction” value in series [12] (setting [13]) is reported as “O”.

`COC(=O)C1=CC[C@@]23CC[C@@H]([C@@](C)(/C=C/C=C(\C)C(=O)O)OC2=O)[C@@]3(OC(C)=O)CC1` [pseudolaric acid B]: the “Type: Type of interaction” value in series [12] was “O”.

Regarding `O=c1c(-c2ccc(O)cc2)coc2c([C@@H]3O[C@H](CO)[C@@H](O)[C@H](O)[C@H]3O)c(O)ccc12` [puerarin], the “Type: Type of interaction” value in [12] (setting [13]) is reported as “B”.

On to `OCCOCCN1CCN(C2=Nc3ccccc3Sc3ccccc32)CC1` [quetiapine], for which, in series [12] (setting [13]), the “Type: Type of interaction” value is on record as “O”.

Turning to `COC1=C(CC(C)OC(=O)c2cc(Cl)c(O)cc2O)C(=O)C(NC=O)=CC1=O` (stereo not shown) [radester], in [12] (setting [13]), the “Type: Type of interaction” value is on record as “O”.

With `C[C@H](N[C@@H](CCc1ccccc1)C(=O)O)C(=O)N1[C@H](C(=O)O)C[C@@H]2CCC[C@@H]21` [ramiprilat], the “Type: Type of interaction” value in series [12] is recorded as “B”.

On to `O=c1c2ccccc2nc2n1CCc1c-2[nH]c2ccccc12` [rutecarpine], for which the “Type: Type of interaction” value in series [7] was “B”.

In the case of `O=C(/C=C/c1ccccc1)NC(NC(=S)Nc1cccc2cccnc12)C(Cl)(Cl)Cl` (stereo not shown) [salubrinal], in [7], the “Type: Type of interaction” value is “B”.

LY 303511: the “Type: Type of interaction” value in series [12] is reported as “O”.

In the case of Pyrethrins, the “Type: Type of interaction” value in series [12] (setting [13]) is given as “O”.

Take mahanine: the “Type: Type of interaction” value in [12] was “B”.

Take maraviroc: the “Type: Type of interaction” value in [12] is given as “B”.

Consider melitten, for which the “Type: Type of interaction” value in series [12] is “O”.

Take milbemycin: in [12], the “Type: Type of interaction” value is recorded as “O”.

On to neodymium, for which the “Type: Type of interaction” value in [12] is recorded as “O”.

In the case of “neuromedin C (GNHWAVGHLM; ends and bridges not checked; UniProt P07492 41-50, looked up)”, the “Type: Type of interaction” value in [12] (setting [13]) is “O”.

With obovatol, the “Type: Type of interaction” value in series [12] is recorded as “B”.

omalizumab: in series [12] (setting [13]), the “Type: Type of interaction” value is “B”.

pegvisomant: the “Type: Type of interaction” value in series [12] is “O”.

For pentosidine, the “Type: Type of interaction” value in series [12] is on record as “B”.

Take pheophorbide a: the “Type: Type of interaction” value in [12] is given as “O”.

Turning to pifithrin, the “Type: Type of interaction” value in [12] is listed as “B”.

In the case of pindobind, the “Type: Type of interaction” value in [12] is reported as “O”.

For the compound prostaglandin J2, the “Type: Type of interaction” value in series [12] is recorded as “O”.
